According to US20070275091A1, “Compositions And Methods For Improved Mucus Function” (priority 2004, published 2007):
Entries after “also recorded” stand apart in the source; their conditions may differ.

Columns and labels:
[1] = system: frog palate mucociliary clearance; experiment: Frog palate mucociliary transport, agent applied topically; parameters: species or system Rana catesbiana
Experimental: (§1) The displacement of a 1-5 μL of endogenous frog mucus sample is timed as the trailing edge moves across a predetermined segment. MTV is calculated by dividing the distance traveled by the time elapsed, based on at least five measurements of the time required for the mucus sample to travel the defined distance (3).
In FIG. 4A, the effect of a mucomodulating agent (CaCl2) on mucociliary transport time is shown compared to Frog Ringers (FR) solution. Both solutions (FR and CaCl2) were applied topically to the palate in a volume of 5 μL. Thirty seconds were allowed for dispersion of the agent on the palate, followed by the measurement of mucociliary transport time. A droplet of mucus from the palate was placed on palate toward the mouth opening. Ciliary action transported the droplet down the palate. The measurement process (timing the movement of the droplet down the palate over a set distance of 4 mm as observed through a stereomicroscope with a reticulated eyepiece) was repeated five times and averaged to give a mean transport time for each solution.
As described above, mucomodulator solutions were applied topically to the palate in a volume of 5 μl. After 30 seconds to allow dispersion of the agent on the palate, measurements of mucociliary transport time were taken. None of the agents tested on the frog palate had any significant effect on mucociliary clearance until the highest delivered concentrations. Variations at low concentrations were due to variations in baseline frog palate mucociliary activity.

[2] = system: mucus from the frog palate; details: 5 μL of 0.1 M solution applied topically
Text: From a bullfrog, Rana catesbiana, the upper portion of the head is removed modifying the procedures described in previous works. This is done by pithing the frog after lowering the body temperature to abolish pain sensation, and then cutting with scissors through from the junction of the posterior pharynx and esophagus out to the skin of the back. The palate is checked for macroscopic lesions, such as ulcers, or evidence of inflammation. The palate is then placed inside the frog chamber, a wooden box with a glass top and fitted glass front and manipulated through glove openings, and viewed under a dissecting stereomicroscope provided with a reticulated eyepiece. Humidity inside the box is maintained at 100% using a Pari nebulizer; the box is maintained at room temperature (22° to 24° C.). Before carrying out any measurement, the palate is allowed to stabilize inside the box for 15 minutes.
Samples of mucus and tissue are placed in 2.5% glutaraldehyde solution immediately after collection and stored at 4° C. until processing. Briefly, the samples are post-fixed in 1% osmium tetroxide in Millonig's buffer at room temperature for one hour. They are then washed briefly in a series of ethanol (50-100%), ten minutes at each step, followed by two additional periods of absolute ethanol (10 minutes each). […]

[3] = system: frog palate epithelial model; experiment: Mucociliary clearance of borate-treated mucus simulant on frog palate; parameters: species or system Rana catesbiana; details: control native frog palate mucus 24 mm/min
Experimental: as §1
(§2) Mucus simulants (MS) were exposed to airflow in a simulated cough machine (SCM). The MS ranged from non-viscous, non-elastic substances (water—control) to MS of varying degrees of viscosity and elasticity. Mucin crosslinking was increased by adding sodium tetraborate (mucomodulator B) to viscous solutions of locust bean gum (Sigma). Mucociliary clearance of the MS was assessed on the frog palate (FIG. 5A), elasticity in the Filancemeter (FIG. 6A) and the aerosol pattern in a “bulls-eye” target (FIG. 6B). The sample loaded was weighed before and after each cough maneuver to achieve a measure of expectoration (FIG. 5B).

[4] = system: tracheal mucociliary clearance; experiment: Tracheal mucus velocity in anesthetized dogs; type: in vivo; details: for TMV: 7 mL over 20 min, jet nebulizer; for thread formation capability (a measure of elasticity) of the tracheal mucus: after aerosol exposure, not in sham or saline
Experimental: The mucomodulator aerosols were delivered to the intubated, spontaneously breathing dogs by jet nebulizer aerosol (7 mL over 20 min). Three aerosol concentrations were delivered: Low=0.001M; Med 0.01M; High=0.1M.
The following was assessed: cardio-respiratory pattern, tracheal mucus clearance, airway patency, and mucus viscoelasticity changes.

[5] = Simulated cough machine, expectoration of mucus simulant
Text: The simulated cough machine system comprises the following elements: A 10-L tank with compressed air, which serves as a pressure reservoir that generates airflow, simulating the lungs during a cough maneuver. The pressure generated prior to a normal adult cough is approximately 8 psi pressure. This pressure value was used to simulate the airflow pattern of a human cough for each trial.
The model “trachea” is a 28 cm long rigid acrylic tube with a circular 2.5 cm cross-section. It has an 8 cm removable portion to allow us to measure the weight of the sample of mucus simulant loaded before and immediately after each “cough” maneuver. A solenoid valve located between the pressure reservoir and the model trachea control the gas released from the tank.
An aliquot of sputum or mucus simulant is layered on the bottom of the model trachea and driven forward by the pressurized gas. […] Displacement of the MS sample loaded, expressed in millimeters, is measured from the initial placement to the farthest point with a visible bulk concentration of mucus. […]
Mucus simulants (MS) were exposed to airflow in a simulated cough machine (SCM). […] Mucociliary clearance of the MS was assessed on the frog palate (FIG. 5A), elasticity in the Filancemeter (FIG. 6A) and the aerosol pattern in a “bulls-eye” target (FIG. 6B). […]

[6] = Filancemeter spinnability of mucus simulant; type: physicochemical; details: model studies using vegetable polysaccharides
Experimental: as §2

[7] = Aerosol pattern on bulls-eye target, simulated cough machine; details: increasing amounts added, 1.5 μL to 150 μL
Experimental: as §2

With `[Ca+2].[Cl-].[Cl-]` [CaCl2, calcium chloride] the “mucociliary transport time compared to Frog Ringers” value ([1]; 5 μL topical, 30 s dispersion, 4 mm distance) was “no significant effect; also recorded: did not alter the mucus transit time” and the “effect on mucus on the surface of the palate (SE micrograph)” value [2] was “causes “clumping” of the mucus”.

For `[Na+].[Na+].[O-]B1OB2OB([O-])OB(O1)O2` [XL “B”, sodium tetraborate], the “mucociliary transport rate of treated mucus simulants (means)” value [3] was 16-20 mm/min, the TMV ([4]; High = 0.1M aerosol) was 4.3 ± 1.53 mm/min and the TMV ([4]; Low = 0.001M aerosol) was 3.88 ± 1.66 mm/min. The TMV ([4]; Med = 0.01M aerosol) was 4.96 ± 1.99 mm/min, the “thread formation capability (a measure of elasticity) of the tracheal mucus” value [4] was “increase” and the “amount of MS expelled from the SCM” value ([5]; 1.5 μL added) was 47%. For the same compound, the “amount of MS expelled from the SCM” value ([5]; 150 μL added) was 96%, the “elasticity relative to viscosity” value [6] was “preferentially raises elasticity relative to viscosity” and the “particles in the aerosolization pattern” value [7] was “reduced to almost disappear”.

For HMW dextran [XL “D”], the TMV ([4]; High = 0.1M aerosol) was 3.85 ± 2.2 mm/min, the TMV ([4]; Low = 0.001M aerosol) was 4.43 ± 3.83 mm/min and the TMV ([4]; Med = 0.01M aerosol) was 3.77 ± 1.65 mm/min. The “thread formation capability (a measure of elasticity) of the tracheal mucus” value [4] was “increase”.

For poly-L-arginine [Mucomodulator A], the mucociliary clearance rate ([1]; 5 μl topical, 10^-8 to 10^-1 M, increasing applied concentration) was “significant increase”.

In the case of polymyxin B [reference compound], the mucociliary clearance ([1]; 5 μl topical, highest concentration) is reported as “sustained decrease” and the mucociliary clearance ([1]; 5 μl topical, intermediate concentration) is reported as “increase”.
